Paper PMC3885398, “Evaluation of the Antitumor Effects of BPR1J-340, a Potent and Selective FLT3 Inhibitor, Alone or in Combination with an HDAC Inhibitor, Vorinostat, in AML Cancer” (PLoS ONE, 2014)

Legend:
[1] = tested on: MOLM-13 tumor xenograft; set-up: method as in PMID 22187040; details: 25 mg/kg, same MOLM-13 model; cited from earlier work
[2] = tested on: MV4;11 cells; assay: Apoptosis assay, Annexin V-FITC/PI flow cytometry; type: cell-based, human; details: MV4;11 (FLT3-ITD-expressing cells), 300 nM, 48 hours
Method: (§1) The number of apoptotic cells was determined by fluorescence-activated cell sorting (FACS) analyses using Annexin V-FITC staining. In brief, cells were centrifuged after drug treatment and resuspended in 1× binding buffer containing 2.5 mM of calcium (Ca2+). Cells were incubated with Annexin V-FITC (Biolegend, San Diego, CA) and propidium iodide (PI) (Sigma–Aldrich, St. Louis, MO) in the dark at room temperature for 20 minutes. Next, samples were reconstituted with 1× binding buffer and subjected to flow cytometry FACS Calibus (BD Bioscience, Franklin Lakes, NJ) to analyze the Annexin V-positive population using CellQuest Pro (BD Bioscience) and FlowJo (Treestar, Inc., San Carlos, CA).
(§2) Some histone deacetylase inhibitors (HDACi) will enhance the cytotoxic activity of FLT3 inhibitor on FLT3-ITD^+ cell via degradation of FLT3-ITD and STAT5 [24], [26], [36], [37]. […]
(§3) Figure 4 The effect of BPR1J-340 and SAHA versus drug combination on AML FLT3-ITD+ cells. […] (A) Viable cells were counted after staining with trypan blue dye at indicated time point (B) At 48-hours after treatment, cells were stained with FITC-labeled annexin V and propidium iodide and percentages of apoptotic cells were analyzed by flow cytometry. […]

[3] = tested on: MOLM-13 cells; assay: Apoptosis assay, Annexin V-FITC/PI flow cytometry; type: cell-based, human; details: MOLM-13 (FLT3-ITD-expressing cells), 300 nM, 48 hours
Method: as §1, §2, §3

| SMILES | CR, animals [1] | rate of apoptotic cells versus control [2] | rate of apoptotic cells versus control [3] |
| --- | --- | --- | --- |
| CN1CCN(c2ccc(C(=O)Nc3cc(-c4cccc(NS(=O)(=O)c5ccccc5)c4)n[nH]3)cc2)CC1 [BPR1J-097, N1-(3-3-[(phenylsulfonyl)amino]phenyl-1H-5-pyrazolyl)-4-(4-methylpiperazino)benzamide] | 1/8 | – | – |
| O=C(CCCCCCC(=O)Nc1ccccc1)NO [SAHA, vorinostat] | – | did not increase | did not increase |
